Assay results published in patent US11999727B2 (Tango Therapeutics, Inc., priority 2020, dated 2024).
Where two headings read alike, the source gives them in different places.

Key:
PRMT5 [1] = biological target: T1, PRMT5 (Homo sapiens, UniProt O14744); test: PRMT5 biochemical IC50 assay with MTA as cofactor; details: PRMT5, MTA as cofactor; read-out: MTA IC50
T1 construct: purchased Viva (custom protein)

[2] = test system: HAP1 MTAP-deleted cell line; test: Viability assay, MTAP-deleted cell line; format: cell-based; details: MTAP-deleted cell line, read-out: HAP1 MTAP deleted viability
Excerpt: Table 1 additionally indicates IC50 values in a viability assay for the MTAP-deleted cell line (column 10), indicating the effect of treatment with compound on cell survival.

PRMT5 [3] = biological target: T1, PRMT5; test: PRMT5 biochemical IC50 assay with no cofactor; details: PRMT5, no cofactor; read-out: No Cofactor/rel IC50
Excerpt: Table 1 indicates IC50 values (μM) against PRMT5 for exemplary compounds in the presence of SAM as cofactor, with no cofactor, and with MTA as cofactor, respectively (columns 4-6). […] Ki values can be calculated from the IC50 values as described in the Examples section. As detailed in the Examples section, for the assay performed in the presence of SAM, IC50=Ki×1.5 (Ki=IC50/1.5).

PRMT5 [4] = biological target: T1, PRMT5; test: PRMT5 biochemical IC50 assay with SAM as cofactor; details: PRMT5, SAM as cofactor; read-out: SAM IC50
[5] = test system: HAP1 MTAP-deleted cell line; test: SDMA in-cell western assay, HAP1 MTAP-deleted; format: cell-based; details: for IC50: HAP1 MTAP-deleted, read-out: HAP1 MTAP deleted IC50; for MTAP intact/deleted ratio: IC50 ratio HAP1 MTAP-intact / HAP1 MTAP-deleted
Summary of the method: (§1)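 IC50 values come from SDMA signal quantified by in-cell western in two HAP1 lines, one with native MTAP levels and one lacking MTAP.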

[6] = test system: HAP1 MTAP-intact cell line; test: SDMA in-cell western assay, HAP1 MTAP-intact; format: cell-based; details: HAP1 MTAP-intact, read-out: MTAP HAP1 intact IC50
Summary of the method: as §1

[7] = Homo sapiens, HAP1, viability assay
[8] = Homo sapiens, HAP1, SDMA in-cell western

T1 sequence (O14744 whole entry): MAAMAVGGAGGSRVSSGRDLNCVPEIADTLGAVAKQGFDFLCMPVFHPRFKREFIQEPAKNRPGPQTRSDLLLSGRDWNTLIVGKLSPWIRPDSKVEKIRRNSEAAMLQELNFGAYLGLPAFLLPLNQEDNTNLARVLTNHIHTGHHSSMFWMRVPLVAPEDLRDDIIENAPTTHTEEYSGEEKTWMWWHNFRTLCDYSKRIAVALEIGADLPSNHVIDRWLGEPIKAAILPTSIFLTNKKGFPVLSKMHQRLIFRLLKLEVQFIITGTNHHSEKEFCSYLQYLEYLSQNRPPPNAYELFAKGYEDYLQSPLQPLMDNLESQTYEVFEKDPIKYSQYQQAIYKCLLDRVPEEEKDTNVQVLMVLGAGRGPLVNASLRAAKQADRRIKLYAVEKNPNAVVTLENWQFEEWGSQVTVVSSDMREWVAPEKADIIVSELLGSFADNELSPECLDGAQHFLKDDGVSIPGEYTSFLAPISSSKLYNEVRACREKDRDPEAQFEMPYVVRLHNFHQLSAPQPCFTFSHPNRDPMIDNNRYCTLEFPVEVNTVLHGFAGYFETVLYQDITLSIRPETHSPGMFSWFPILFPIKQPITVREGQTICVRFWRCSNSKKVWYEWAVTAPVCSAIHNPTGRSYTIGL
T1 sequence (Q9BQA1 whole entry partner): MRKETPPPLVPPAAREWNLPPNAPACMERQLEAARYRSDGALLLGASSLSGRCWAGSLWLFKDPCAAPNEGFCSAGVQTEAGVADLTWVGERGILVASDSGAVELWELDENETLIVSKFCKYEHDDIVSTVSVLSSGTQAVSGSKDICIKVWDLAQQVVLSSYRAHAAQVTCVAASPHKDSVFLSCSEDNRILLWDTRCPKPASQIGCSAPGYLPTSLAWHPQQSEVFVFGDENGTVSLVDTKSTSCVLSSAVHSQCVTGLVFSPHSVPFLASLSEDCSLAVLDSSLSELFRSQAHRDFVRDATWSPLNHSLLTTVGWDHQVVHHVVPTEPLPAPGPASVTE

Row | SMILES | IC50 (PRMT5 [1]) [nM] | IC50 [2, 7] [nM] | IC50 (PRMT5 [3]) [nM] | IC50 (PRMT5 [4]) [nM] | IC50 [5, 8] [nM] | MTAP intact/deleted ratio ([5]; SDMA in-cell western) | IC50 [6, 8] [nM] | IC50 ([5]; SDMA in-cell western) [nM] | IC50 ([2]; viability assay) [nM] | IC50 ([6]; SDMA in-cell western) [nM]
1 | NC(=O)c1cncc(NC(=O)C(=O)N2C[C@H]3CC[C@H](C3)[C@H]2c2ccccc2)c1 (single isomer, unassigned) [Compound 194] | > 500 | > 10000 | > 500 | > 500 | > 1000 | C (an IC50 ratio of less than 3 fold) | > 1000 |  |  | 
2 | Cc1ncc(NC(=O)C(=O)N2C[C@H](C)CC[C@H]2c2ccccc2)cc1C(N)=O (single isomer, unassigned) [Compound 196] | > 500 | > 10000 | > 500 | > 500 | > 1000 | C (an IC50 ratio of less than 3 fold) | > 1000 |  |  | 
3 | CC1(C)CCC[C@H]2CN(C(=O)C(=O)Nc3cncc(C(N)=O)c3)CC[C@@H]21 (single isomer, unassigned) [Compound 197] | 50 to 500 | > 10000 | > 500 | 50 to 500 | > 1000 | C (an IC50 ratio of less than 3 fold) | > 1000 |  |  | 
4 | C[C@H]1CC[C@H](c2cccs2)N(C(=O)C(=O)Nc2cncc(C(N)=O)c2)C1 (single isomer, unassigned) [Compound 198] | < 50 | < 1000 | < 50 | 50 to 500 | < 100 | A (an IC50 ratio greater than or equal to 10 fold) | 100 to 1000 |  |  | 
5 | COc1ncc(NC(=O)C(=O)N2CCCCC2c2ccccc2)cc1C(N)=O (single isomer, unassigned) [Compound 199, 2-methoxy-5-(2-oxo-2-(2-phenylpiperidin-1-yl)acetamido)nicotinamide] | 50 to 500 | > 10000 | > 500 | > 500 |  | C (an IC50 ratio of less than 3 fold) | > 1000 | > 1000 |  | 
6 | Cc1ncc(NC(=O)C(=O)N2C[C@@H](C)CC[C@@H]2c2ccccc2)cc1C(N)=O (single isomer, unassigned) [Compound 200] | < 50 | 1000 to 10000 | 50 to 500 | 50 to 500 | < 100 | A (an IC50 ratio greater than or equal to 10 fold) | > 1000 |  |  | 
7 | C[C@@H]1CC[C@@H](c2cccs2)N(C(=O)C(=O)Nc2cncc(C(N)=O)c2)C1 (single isomer, unassigned) [Compound 201] | > 500 | > 10000 | > 500 | > 500 | > 1000 | C (an IC50 ratio of less than 3 fold) | > 1000 |  |  | 
8 | COc1ncc(NC(=O)C(=O)N2CCCCC2c2ccccc2)cc1C(N)=O (single isomer, unassigned) [Compound 202, 2-methoxy-5-(2-oxo-2-(2-phenylpiperidin-1-yl)acetamido)nicotinamide] | < 50 |  | 50 to 500 | 50 to 500 |  | A (an IC50 ratio greater than or equal to 10 fold) |  | 100 to 1000 | > 10000 | > 1000
9 | Cc1cc(NC(=O)C(=O)N2CCCC[C@@H]2C(C)C)cnc1N (single isomer, unassigned) [Compound 204] | 50 to 500 | > 10000 | > 500 | > 500 | > 1000 | C (an IC50 ratio of less than 3 fold) | > 1000 |  |  | 
10 | NC(=O)c1cncc(NC(=O)C(=O)N2C[C@@H]3CC[C@@H](C3)[C@@H]2c2ccccc2)c1 (single isomer, unassigned) [Compound 205] | 50 to 500 | > 10000 | > 500 | 50 to 500 | > 1000 | B (an IC50 ratio greater than or equal to 3 fold but lower than 10 fold) | > 1000 |  |  | 
11 | C[C@H]1CC[C@H](C2CCC2)N(C(=O)C(=O)Nc2cncc(C(N)=O)c2)C1 (single isomer, unassigned) [Compound 211] | < 50 | 1000 to 10000 | 50 to 500 | 50 to 500 | < 100 | A (an IC50 ratio greater than or equal to 10 fold) | > 1000 |  |  | 
12 | C[C@@H]1CC[C@@H](C2CCC2)N(C(=O)C(=O)Nc2cncc(C(N)=O)c2)C1 (single isomer, unassigned) [Compound 216] | > 500 | > 10000 | > 500 | > 500 | > 1000 | C (an IC50 ratio of less than 3 fold) | > 1000 |  |  | 
13 | Cc1cccc([C@H]2CC[C@H](C)CN2C(=O)C(=O)Nc2cncc(C(N)=O)c2)c1 (single isomer, unassigned) [Compound 219] | < 50 | 1000 to 10000 | < 50 | 50 to 500 | < 100 | A (an IC50 ratio greater than or equal to 10 fold) | > 1000 |  |  | 
14 | Cc1cccc([C@@H]2CC[C@@H](C)CN2C(=O)C(=O)Nc2cncc(C(N)=O)c2)c1 (single isomer, unassigned) [Compound 227] | > 500 | > 10000 | > 500 | > 500 | > 1000 | C (an IC50 ratio of less than 3 fold) | > 1000 |  |  | 
15 | C[C@@H]1CC[C@@H]2CCCC[C@@H]2N1C(=O)C(=O)Nc1cncc(C(N)=O)c1 (single isomer, unassigned) [Compound 236] | 50 to 500 | > 10000 | > 500 | > 500 | > 1000 | B (an IC50 ratio greater than or equal to 3 fold but lower than 10 fold) | > 1000 |  |  | 
16 | C[C@H]1CC[C@H]2CCCC[C@H]2N1C(=O)C(=O)Nc1cncc(C(N)=O)c1 (single isomer, unassigned) [Compound 245] | < 50 | 1000 to 10000 | 50 to 500 | 50 to 500 | 100 to 1000 | A (an IC50 ratio greater than or equal to 10 fold) | > 1000 |  |  | 
17 | Cc1cc(NC(=O)C(=O)N2C[C@H](C)CC[C@H]2c2ccccc2)cnc1C (single isomer, unassigned) [Compound 254] | < 50 | 1000 to 10000 | 50 to 500 | < 50 | 100 to 1000 | A (an IC50 ratio greater than or equal to 10 fold) | > 1000 |  |  | 
18 | Cc1cc(NC(=O)C(=O)N2C[C@@H](C)CC[C@@H]2c2ccccc2)cnc1C (single isomer, unassigned) [Compound 258] | > 500 | > 10000 | > 500 | > 500 | > 1000 | C (an IC50 ratio of less than 3 fold) | > 1000 |  |  | 
19 | Cc1cc(NC(=O)C(=O)N2C[C@H](C)CC[C@H]2[C@H]2CC[C@H](C(C)(C)C)CC2)cnc1N (single isomer, unassigned) [Compound 260] | < 50 | 1000 to 10000 | 50 to 500 | 50 to 500 | 100 to 1000 | C (an IC50 ratio of less than 3 fold) | > 1000 |  |  | 
20 | C[C@H]1C[C@H](C)[C@H](c2ccccc2)N(C(=O)C(=O)Nc2cncc(C(N)=O)c2)C1 (single isomer, unassigned) [Compound 267, 5-(2-(3,5-dimethyl-2-phenylpiperidin-1-yl)-2-oxoacetamido)nicotinamide] | < 50 | 1000 to 10000 | 50 to 500 | < 50 | < 100 | A (an IC50 ratio greater than or equal to 10 fold) | > 1000 |  |  | 
21 | C[C@H]1CCC[C@@H](c2ccccc2)N1C(=O)C(=O)Nc1cncc(C(N)=O)c1 (single isomer, unassigned) [Compound 274] | < 50 | 1000 to 10000 | 50 to 500 | 50 to 500 | 100 to 1000 | A (an IC50 ratio greater than or equal to 10 fold) | > 1000 |  |  | 
22 | CC(=O)N[C@H]1CC[C@@H]([C@@H]2CC[C@@H](C)CN2C(=O)C(=O)Nc2cnc(N)c(C)c2)CC1 (single isomer, unassigned) [Compound 281] | 50 to 500 | > 10000 | > 500 | > 500 | 100 to 1000 | A (an IC50 ratio greater than or equal to 10 fold) | > 1000 |  |  | 
